Experimental data taken from ChEMBL document CHEMBL4814027, “Synthesis and biological evaluation of naphthoquinone phenacylimidazolium derivatives” (Bioorg Med Chem Lett, 2021).

Tests used:
[1] = Selectivity ratio of IC50 for mouse L929 cells to IC50 for human MCF7 cells; format: toxicity; conditions: L929 cells versus MCF7 cells, read-out: Ratio IC50
[2] = Selectivity ratio of IC50 for mouse L929 cells to IC50 for human HeLa cells; format: toxicity; conditions: L929 cells versus HeLa cells, read-out: Ratio IC50
L929 = test: Cytotoxicity against mouse L929 cells by MTT assay
MCF7 = test: Cytotoxicity against human MCF7 cells by MTT assay; format: functional, cell-based
HeLa = test: Cytotoxicity against human HeLa cells by MTT assay; format: functional, cell-based
A549 = test: Cytotoxicity against human A549 cells by MTT assay
[3] = Selectivity ratio of IC50 for mouse L929 cells to IC50 for human A549 cells; format: toxicity; conditions: L929 cells versus A549 cells, read-out: Ratio IC50

CC(C)Cn1c[n+](CC(=O)c2ccc([N+](=O)[O-])cc2)c2c1C(=O)c1ccccc1C2=O
selectivity ratio [1]: 2 | selectivity ratio [2]: 1.7 | IC50 (L929): 4.6 µM | IC50 (MCF7): 2.3 µM | IC50 (HeLa): 2.7 µM | IC50 (A549): 1 µM | selectivity ratio [3]: 4.6

Cn1c[n+](CC(=O)c2ccc(Br)cc2)c2c1C(=O)c1ccccc1C2=O
selectivity ratio [1]: 2.84 | selectivity ratio [2]: 2.49 | IC50 (L929): 20.7 µM | IC50 (MCF7): 7.3 µM | IC50 (HeLa): 8.3 µM | IC50 (A549): 0.95 µM | selectivity ratio [3]: 21.8

CCCCn1c[n+](CC(=O)c2ccc([N+](=O)[O-])cc2)c2c1C(=O)c1ccccc1C2=O
selectivity ratio [1]: 3.23 | selectivity ratio [2]: 4.55 | IC50 (L929): 20 µM | IC50 (MCF7): 6.2 µM | IC50 (HeLa): 4.4 µM | IC50 (A549): 2.5 µM | selectivity ratio [3]: 8

Cn1c[n+](CC(=O)C(C)(C)C)c2c1C(=O)c1ccccc1C2=O
selectivity ratio [1]: 3.61 | selectivity ratio [2]: 4.72 | IC50 (L929): 27.4 µM | IC50 (MCF7): 7.6 µM | IC50 (HeLa): 5.8 µM | IC50 (A549): 2.4 µM | selectivity ratio [3]: 11.4

CC(C)Cn1c[n+](CC(=O)c2cccc([N+](=O)[O-])c2)c2c1C(=O)c1ccccc1C2=O
selectivity ratio [1]: 5.79 | selectivity ratio [2]: 3.86 | IC50 (L929): 16.2 µM | IC50 (MCF7): 2.8 µM | IC50 (HeLa): 4.2 µM | IC50 (A549): 2.9 µM | selectivity ratio [3]: 5.59

CC(C)Cn1c[n+](CC(=O)c2ccc(F)cc2)c2c1C(=O)c1ccccc1C2=O
selectivity ratio [1]: 21.9 | selectivity ratio [2]: 40 | IC50 (L929): 16.4 µM | IC50 (MCF7): 0.75 µM | IC50 (HeLa): 0.41 µM | IC50 (A549): 0.2 µM | selectivity ratio [3]: 82

Cc1ccc(C(=O)C[n+]2cn(CC(C)C)c3c2C(=O)c2ccccc2C3=O)cc1
selectivity ratio [1]: 8.57 | selectivity ratio [2]: 2.67 | IC50 (L929): 4.8 µM | IC50 (MCF7): 0.56 µM | IC50 (HeLa): 1.8 µM | IC50 (A549): 0.35 µM | selectivity ratio [3]: 13.7

Cc1cc(C)c(-n2c[n+](CC(=O)c3ccc([N+](=O)[O-])cc3)c3c2C(=O)c2ccccc2C3=O)c(C)c1
selectivity ratio [1]: 1.99 | selectivity ratio [2]: 0.59 | IC50 (L929): 24.5 µM | IC50 (MCF7): 12.3 µM | IC50 (HeLa): 41.7 µM | IC50 (A549): 6.6 µM | selectivity ratio [3]: 3.71

Cn1c[n+](CC(=O)c2ccccc2)c2c1C(=O)c1ccccc1C2=O
selectivity ratio [1]: 80.8 | selectivity ratio [2]: 19.9 | IC50 (L929): 29.9 µM | IC50 (MCF7): 0.37 µM | IC50 (HeLa): 1.5 µM | IC50 (A549): 0.42 µM | selectivity ratio [3]: 71.2

COc1ccc(C(=O)C[n+]2cn(CC(C)C)c3c2C(=O)c2ccccc2C3=O)cc1
selectivity ratio [1]: 7.42 | selectivity ratio [2]: 28.8 | IC50 (L929): 2.3 µM | IC50 (MCF7): 0.31 µM | IC50 (HeLa): 0.08 µM | IC50 (A549): 0.19 µM | selectivity ratio [3]: 12.1

CC(C)Cn1c[n+](CC(=O)N(C)C)c2c1C(=O)c1ccccc1C2=O
selectivity ratio [1]: 0.9 | selectivity ratio [2]: 4.59 | IC50 (L929): 58.8 µM | IC50 (MCF7): 65.6 µM | IC50 (HeLa): 12.8 µM | IC50 (A549): 0.4 µM | selectivity ratio [3]: 147

CC(C)Cn1c[n+](CC(=O)c2ccccc2[N+](=O)[O-])c2c1C(=O)c1ccccc1C2=O
selectivity ratio [1]: 2.4 | selectivity ratio [2]: 1.81 | IC50 (L929): 133 µM | IC50 (MCF7): 55.4 µM | IC50 (HeLa): 73.6 µM | IC50 (A549): 35.2 µM | selectivity ratio [3]: 3.78

CC(C)Cn1c[n+](CC(=O)C(C)(C)C)c2c1C(=O)c1ccccc1C2=O
selectivity ratio [1]: 1 | selectivity ratio [2]: 1.11 | IC50 (L929): 10.4 µM | IC50 (MCF7): 10.4 µM | IC50 (HeLa): 9.4 µM | IC50 (A549): 3.3 µM | selectivity ratio [3]: 3.15

Cn1c[n+](CC(=O)c2ccccc2[N+](=O)[O-])c2c1C(=O)c1ccccc1C2=O
selectivity ratio [1]: 2.32 | selectivity ratio [2]: 4.8 | IC50 (L929): 41.8 µM | IC50 (MCF7): 18 µM | IC50 (HeLa): 8.7 µM | IC50 (A549): 0.5 µM | selectivity ratio [3]: 83.6

CC(C)Cn1c[n+](CC(=O)c2ccco2)c2c1C(=O)c1ccccc1C2=O
selectivity ratio [1]: 26.6 | selectivity ratio [2]: 14.2 | IC50 (L929): 8.5 µM | IC50 (MCF7): 0.32 µM | IC50 (HeLa): 0.6 µM | IC50 (A549): 0.37 µM | selectivity ratio [3]: 23

COCCn1c[n+](CC(=O)c2ccc([N+](=O)[O-])cc2)c2c1C(=O)c1ccccc1C2=O
selectivity ratio [1]: 2.19 | selectivity ratio [2]: 5.29 | IC50 (L929): 41.3 µM | IC50 (MCF7): 18.9 µM | IC50 (HeLa): 7.8 µM | IC50 (A549): 2.9 µM | selectivity ratio [3]: 14.2

CC(C)Cn1c[n+](CC(=O)c2ccc3ccccc3c2)c2c1C(=O)c1ccccc1C2=O
selectivity ratio [1]: 6.56 | selectivity ratio [2]: 4.12 | IC50 (L929): 17.7 µM | IC50 (MCF7): 2.7 µM | IC50 (HeLa): 4.3 µM | IC50 (A549): 1.3 µM | selectivity ratio [3]: 13.6

CCC(C)n1c[n+](CC(=O)c2ccc([N+](=O)[O-])cc2)c2c1C(=O)c1ccccc1C2=O (stereo not drawn)
selectivity ratio [1]: 3.04 | selectivity ratio [2]: 3.23 | IC50 (L929): 27.1 µM | IC50 (MCF7): 8.9 µM | IC50 (HeLa): 8.4 µM | IC50 (A549): 1.8 µM | selectivity ratio [3]: 15.1

CC(C)c1cccc(C(C)C)c1-n1c[n+](CC(=O)c2ccc([N+](=O)[O-])cc2)c2c1C(=O)c1ccccc1C2=O
selectivity ratio [1]: 0.97 | selectivity ratio [2]: < 0.47 | IC50 (L929): 46.5 µM | IC50 (MCF7): 47.9 µM | IC50 (HeLa): > 100 µM | IC50 (A549): 26.7 µM | selectivity ratio [3]: 1.74

CCCn1c[n+](CC(=O)c2ccc([N+](=O)[O-])cc2)c2c1C(=O)c1ccccc1C2=O
selectivity ratio [1]: 2.92 | selectivity ratio [2]: 2.88 | IC50 (L929): 24.2 µM | IC50 (MCF7): 8.3 µM | IC50 (HeLa): 8.4 µM | IC50 (A549): 3 µM | selectivity ratio [3]: 8.07

CCn1c[n+](CC(=O)c2ccc([N+](=O)[O-])cc2)c2c1C(=O)c1ccccc1C2=O
selectivity ratio [1]: 1.66 | selectivity ratio [2]: 3.15 | IC50 (L929): 27.7 µM | IC50 (MCF7): 16.7 µM | IC50 (HeLa): 8.8 µM | IC50 (A549): 2.1 µM | selectivity ratio [3]: 13.2

CN(C)C(=O)C[n+]1cn(C)c2c1C(=O)c1ccccc1C2=O
selectivity ratio [1]: 0.57 | selectivity ratio [2]: 21.5 | IC50 (L929): 4.3 µM | IC50 (MCF7): 7.6 µM | IC50 (HeLa): 0.2 µM | IC50 (A549): 0.1 µM | selectivity ratio [3]: 43

Cn1c[n+](CC(=O)c2cccc([N+](=O)[O-])c2)c2c1C(=O)c1ccccc1C2=O
selectivity ratio [1]: 2.86 | selectivity ratio [2]: 4.86 | IC50 (L929): 36.9 µM | IC50 (MCF7): 12.9 µM | IC50 (HeLa): 7.6 µM | IC50 (A549): 2.2 µM | selectivity ratio [3]: 16.8

COc1ccc(C(=O)C[n+]2cn(C)c3c2C(=O)c2ccccc2C3=O)cc1
selectivity ratio [1]: 16.5 | selectivity ratio [2]: 7.31 | IC50 (L929): 11.7 µM | IC50 (MCF7): 0.71 µM | IC50 (HeLa): 1.6 µM | IC50 (A549): 0.24 µM | selectivity ratio [3]: 48.8
